Laboratory results published in patent publication US8188001B2, “Fungicidal mixtures” (BASF Aktiengesellschaft, priority 2002, dated 2012).

Key:
[1] = tested on: Erysiphe [syn. Blumeria] graminis form a specialis. tritici; experiment: Activity against mildew of wheat, protective spray on potted wheat seedlings; format: in vivo; settings: wheat cv. Kanzler, 7 days
Procedure: (§1) The active compounds, separately or together, were formulated as a 10% emulsion in a mixture of 85% by weight of cyclohexanone and 5% by weight of emulsifier, and diluted with water to the desired concentration.
(§2) Evaluation was carried out by determining the infected leaf areas in percent. These percentages were converted into efficacies. The efficacy (W) was calculated as follows using Abbot's formula:
(§3) [formula] • α corresponds to the fungal infection of the treated plants in % and • β corresponds to the fungal infection of the untreated (control) plants in %.
(§4) An efficacy of 0 means that the infection level of the treated plants corresponds to that of the untreated control plants; an efficacy of 100 means that the treated plants were not infected.
(§5) The expected efficacies of the mixtures of the active compounds were determined using Colby's formula [R. S. Colby, Weeds 15, 20-22 (1967)] and compared with the observed efficacies. Colby formula: E=x+y−xy/100 • E expected efficacy, expressed in % of the untreated control, when using the mixture of the active compounds A and B at the concentrations a and b • x efficacy, expressed in % of the untreated control, when using active compound A at a concentration of a • y efficacy, expressed in % of the untreated control, when using active compound B at a concentration of b.
Use example 1: Activity against mildew of wheat caused by Erysiphe [syn. Blumeria] graminis form a specialis. tritici
Leaves of wheat seedlings of the cultivar “Kanzler”, grown in pots, were sprayed to runoff point with an aqueous preparation of active compound which had been prepared from a stock solution comprising 10% of active compound, 85% of cyclohexanone and 5% of emulsifier, and 24 hours after the spray coating had dried on, the leaves were dusted with spores of mildew of wheat (Erysiphe [syn. Blumeria] graminis form a specialis. tritici). The test plants were then placed in a greenhouse at 20-24° C. and 60-90% relative atmospheric humidity. After 7 days, the extent of the mildew development was determined visually in % infection of the entire leaf area.
The visually determined values for the percentage of diseased leaf areas were converted into efficacies in % of the untreated control. An efficacy of 0 means the same disease level as in the untreated control, an efficacy of 100 means a disease level of 0%. The expected efficacies for the combinations of active compounds were determined using Colby's formula, mentioned above, and compared with the observed efficacies.

Sphaerotheca fuliginea = experiment: Protective activity against mildew of cucumber, spray on potted cucumber seedlings; format: in vivo; settings: cucumber cv. chinese snake, 7 days
Procedure: as §1, §2, §3, §4, §5
Use example 2: Protective activity against mildew of cucumber caused by Sphaerotheca fuliginea
Leaves of cucumber seedlings of the cultivar “chinese snake”, grown in pots, were, at the cotyledon stage, sprayed to runoff point with an aqueous preparation of active compound which had been prepared from a stock solution comprising 10% of active compound, 85% of cyclohexanone and 5% of emulsifier. 20 hours after the spray coating had dried on, the plants were inoculated with an aqueous spore suspension of mildew of cucumber (Sphaerotheca fuliginea). The plants were then cultivated in a greenhouse at 20-24° C. and 60-80% relative atmospheric humidity for 7 days. The extent of the mildew development was then determined visually in % infection of the cotyledon area. The visually determined values for the percentage of diseased leaf areas were converted into efficacies in % of the untreated control. An efficacy of 0 means the same disease level as in the untreated control, an efficacy of 100 means a disease level of 0%. The expected efficacies for the combinations of active compounds were determined using Colby's formula, mentioned above, and compared with the observed efficacies.

SMILES	Efficacy in % of the untreated control ([1]; 0.06 ppm in the spray liquor) [%]	Efficacy in % of the untreated control ([1]; 0.25 ppm in the spray liquor) [%]	Efficacy in % of the untreated control ([1]; 1 ppm in the spray liquor) [%]	Efficacy in % of the untreated control ([1]; 4 ppm in the spray liquor) [%]	Efficacy in % of the untreated control (Sphaerotheca fuliginea; 0.06 ppm in the spray liquor) [%]	Efficacy in % of the untreated control (Sphaerotheca fuliginea; 0.25 ppm in the spray liquor) [%]	Efficacy in % of the untreated control (Sphaerotheca fuliginea; 4 ppm in the spray liquor) [%]	Efficacy in % of the untreated control (Sphaerotheca fuliginea; 1 ppm in the spray liquor) [%]	Efficacy in % of the untreated control (Sphaerotheca fuliginea; 0.015 ppm in the spray liquor) [%]	Efficacy in % of the untreated control ([1]; 0.015 ppm in the spray liquor) [%]
O=C(Nc1ccccc1-c1ccc(Cl)cc1)c1cccnc1Cl [Compound II, boscalid]	0	0	0	0	0	0	78			
OC(Cc1ccccc1Cl)(Cn1nc[nH]c1=S)C1(Cl)CC1 (stereo not shown) [Compound I, 2-[2-(1-chlorocyclopropyl)-3-(2-chlorophenyl)-2-hydroxypropyl]-2,4-dihydro-[1,2,4]-triazole-3-thione]		0	0	42		56		78		
O=C(Cc1ccccc1)N/C(=N\OCC1CC1)c1c(OC(F)F)ccc(F)c1F [Compound VI]	0	53			33				0	
N#Cc1sc2c(=O)c3ccccc3c(=O)c=2sc1C#N [Compound VIII, dithianon]			0	0						
Cc1ccc(-c2c(Cl)nc(C#N)n2S(=O)(=O)N(C)C)cc1 [Compound XI, cyazofamid]	0	22	22							
COc1cc(C)c(C(=O)c2c(OC)ccc(Br)c2C)c(OC)c1OC [Compound IV, metrafenone]	53				0				0	30
